Results from PubChem BioAssay AID2060327 (Molecular Pharmacology Branch, DTP, NCI, 2025).

Test system: PC-3 multi-cell spheroids, viability
Test: Anticancer human tumor PC-3 cell line growth inhibition [IpAb];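 further: spheroids exposed to compounds for 7 days before readout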;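 on viability, T/C: 100% = DMSO vehicle control wells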
Conditions: for IC50: curve of first compound; for viability, T/C: stronger effect = lower value
Summary of the method: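 Combinations with ipatasertib or abemaciclib were tested on tumour spheroids holding HUVEC (25%) and MSC (15%) alongside 60% malignant cells. Top concentration was at or near clinical Cmax (10 microM if undefined), descending in half-log steps.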

Q: Which IC50 (second compound 0.01 µM) does the source give for `CC(C)(C)c1cnc(CSc2cnc(NC(=O)C3CCNCC3)s2)o1` + CCN1CCN(Cc2ccc(Nc3ncc(F)c(-c4cc(F)c5nc(C)n(C(C)C)c5c4)n3)nc2)CC1 here?
A: 0.175 µM

Q: What about the IC50 (second compound 0.0316 µM) of the same molecule?
A: 0.146 µM

Q: What about the IC50 (second compound 0.1 µM) of the same molecule?
A: 0.0985 µM

Q: What about the IC50 (second compound 0.316 µM) of the same molecule?
A: 0.0381 µM

Q: What about the IC50 (second compound 1 µM) of the same molecule?
A: < 0.00949 µM

Q: What about the viability, T/C (second compound 0.01 µM, first compound 0.00949 µM) of the same molecule?
A: 75.9%

Q: And the viability, T/C (second compound 0.01 µM, first compound 0.03 µM)?
A: 103%

Q: What about the viability, T/C (second compound 0.01 µM, first compound 0.0949 µM) of the same molecule?
A: 113%

Q: And the viability, T/C (second compound 0.01 µM, first compound 0.3 µM)?
A: 7.99%

Q: And the viability, T/C (second compound 0.01 µM, first compound 0.949 µM)?
A: 6.01%

Q: And the viability, T/C (second compound 0.01 µM, first compound 3 µM)?
A: 7.44%

Q: What about the viability, T/C (second compound 0.0316 µM, first compound 0.00949 µM) of the same molecule?
A: 63.5%

Q: What about the viability, T/C (second compound 0.0316 µM, first compound 0.03 µM) of the same molecule?
A: 71.5%

Q: What about the viability, T/C (second compound 0.0316 µM, first compound 0.0949 µM) of the same molecule?
A: 94.4%

Q: And the viability, T/C (second compound 0.0316 µM, first compound 0.3 µM)?
A: 4.86%

Q: And the viability, T/C (second compound 0.0316 µM, first compound 0.949 µM)?
A: 4.92%

Q: What about the viability, T/C (second compound 0.0316 µM, first compound 3 µM) of the same molecule?
A: 7.51%

Q: And the viability, T/C (second compound 0.1 µM, first compound 0.00949 µM)?
A: 69.1%

Q: And the viability, T/C (second compound 0.1 µM, first compound 0.03 µM)?
A: 73.4%

Q: And the viability, T/C (second compound 0.1 µM, first compound 0.0949 µM)?
A: 51.5%

Q: And the viability, T/C (second compound 0.1 µM, first compound 0.3 µM)?
A: 3.51%

Q: What about the viability, T/C (second compound 0.1 µM, first compound 0.949 µM) of the same molecule?
A: 6%

Q: What about the viability, T/C (second compound 0.1 µM, first compound 3 µM) of the same molecule?
A: 7.79%

Q: And the viability, T/C (second compound 0.316 µM, first compound 0.00949 µM)?
A: 55.9%

Q: And the viability, T/C (second compound 0.316 µM, first compound 0.03 µM)?
A: 54.3%

Q: What about the viability, T/C (second compound 0.316 µM, first compound 0.0949 µM) of the same molecule?
A: 30.5%

Q: And the viability, T/C (second compound 0.316 µM, first compound 0.3 µM)?
A: 4.21%

Q: What about the viability, T/C (second compound 0.316 µM, first compound 0.949 µM) of the same molecule?
A: 5.66%

Q: What about the viability, T/C (second compound 0.316 µM, first compound 3 µM) of the same molecule?
A: 7.81%

Q: And the viability, T/C (second compound 1 µM, first compound 0.00949 µM)?
A: 44.7%

Q: What about the viability, T/C (second compound 1 µM, first compound 0.03 µM) of the same molecule?
A: 36.5%

Q: What about the viability, T/C (second compound 1 µM, first compound 0.0949 µM) of the same molecule?
A: 22.7%

Q: And the viability, T/C (second compound 1 µM, first compound 0.3 µM)?
A: 4.97%

Q: And the viability, T/C (second compound 1 µM, first compound 0.949 µM)?
A: 7.15%

Q: And the viability, T/C (second compound 1 µM, first compound 3 µM)?
A: 8.41%

Q: What does the source list for `Cn1nccc1Nc1nccc(-c2ccn(C(CO)c3ccc(Cl)c(F)c3)c(=O)c2)n1` (stereo not given) + CCN1CCN(Cc2ccc(Nc3ncc(F)c(-c4cc(F)c5nc(C)n(C(C)C)c5c4)n3)nc2)CC1?
A: IC50 (second compound 0.01 µM): > 10 µM; IC50 (second compound 0.0316 µM): > 10 µM; IC50 (second compound 0.1 µM): > 10 µM; IC50 (second compound 0.316 µM): > 10 µM; IC50 (second compound 1 µM): > 10 µM; viability, T/C (second compound 0.01 µM, first compound 0.0316 µM): 87.1%; viability, T/C (second compound 0.01 µM, first compound 0.1 µM): 78.3%; viability, T/C (second compound 0.01 µM, first compound 0.316 µM): 97.1%; viability, T/C (second compound 0.01 µM, first compound 1 µM): 114%; viability, T/C (second compound 0.01 µM, first compound 3.16 µM): 127%; viability, T/C (second compound 0.01 µM, first compound 10 µM): 93.8%; viability, T/C (second compound 0.0316 µM, first compound 0.0316 µM): 59.1%; viability, T/C (second compound 0.0316 µM, first compound 0.1 µM): 58%; viability, T/C (second compound 0.0316 µM, first compound 0.316 µM): 66.1%; viability, T/C (second compound 0.0316 µM, first compound 1 µM): 76.6%; viability, T/C (second compound 0.0316 µM, first compound 3.16 µM): 115%; viability, T/C (second compound 0.0316 µM, first compound 10 µM): 39.8%; viability, T/C (second compound 0.1 µM, first compound 0.0316 µM): 54.4%; viability, T/C (second compound 0.1 µM, first compound 0.1 µM): 52.1%; viability, T/C (second compound 0.1 µM, first compound 0.316 µM): 55.6%; viability, T/C (second compound 0.1 µM, first compound 1 µM): 64.8%; viability, T/C (second compound 0.1 µM, first compound 3.16 µM): 87.7%; viability, T/C (second compound 0.1 µM, first compound 10 µM): 47.2%; viability, T/C (second compound 0.316 µM, first compound 0.0316 µM): 52.4%; viability, T/C (second compound 0.316 µM, first compound 0.1 µM): 68.5%; viability, T/C (second compound 0.316 µM, first compound 0.316 µM): 64.7%; viability, T/C (second compound 0.316 µM, first compound 1 µM): 65.4%; viability, T/C (second compound 0.316 µM, first compound 3.16 µM): 72.9%; viability, T/C (second compound 0.316 µM, first compound 10 µM): 54.3%; viability, T/C (second compound 1 µM, first compound 0.0316 µM): 62.4%; viability, T/C (second compound 1 µM, first compound 0.1 µM): 57.1%; viability, T/C (second compound 1 µM, first compound 0.316 µM): 61.2%; viability, T/C (second compound 1 µM, first compound 1 µM): 63.2%; viability, T/C (second compound 1 µM, first compound 3.16 µM): 92%; viability, T/C (second compound 1 µM, first compound 10 µM): 51.5%
